Assay results as given in ChEMBL document CHEMBL5356932, “Research and development of N,N'-diarylureas as anti-tumor agents” (RSC Med Chem, 2023).

How the values were obtained:
[1] = tested on: MCF7; test: Antiproliferative activity against human MCF7 cells assessed as cell growth inhibition; type: functional, cell-based
[2] = tested on: MDA-MB-231; test: Antiproliferative activity against human MDA-MB-231 cells assessed as cell growth inhibition; type: functional, cell-based
[3] = target: T1, Vascular endothelial growth factor receptor 2 (Homo sapiens, UniProt P35968); test: Inhibition of human VEGFR
[4] = target: Angiopoietin-1 receptor (Homo sapiens, UniProt Q02763); test: Inhibition of TIE2 (unknown origin)
[5] = Cytotoxicity against HUVEC cells assessed as reduction in cell viability and measured after 24 hrs by MTT assay; type: toxicity, cell-based; settings: human
[6] = tested on: MCF7; test: Cytotoxicity against human MCF7 cells assessed as reduction in cell viability incubated for 24 hrs by MTT assay; type: functional, cell-based; settings: MCF7, 24 h
[7] = tested on: HepG2; test: Cytotoxicity against human HepG2 cells assessed as reduction in cell viability incubated for 24 hrs by MTT assay; type: functional, cell-based; settings: HepG2, 24 h
[8] = tested on: HUVEC; test: Anti-angiogenesis activity in HUVEC cells; type: functional, cell-based; settings: Homo sapiens
[9] = target: T1, Vascular endothelial growth factor receptor 2; test: Inhibition of VEGFR2 in HUVEC cells; type: cell-based
[10] = Inhibition of angiogenesis in HUVEC cells assessed as reduction in capillary tube formation after 6 hrs by phase contrast microscopy; type: functional, cell-based; settings: Homo sapiens
[11] = tested on: EA.hy 926; test: Antiproliferative activity against human EA.hy 926 cells assessed as reduction in cell viability incubated for 48 hrs by MTT assay; type: functional, cell-based; settings: EA.hy 926, 48 h
[12] = tested on: HUVEC; test: Antiproliferative activity against HUVEC cells assessed as reduction in cell viability measured after 48 hrs by MTT assay; type: functional, cell-based; settings: Homo sapiens
[13] = tested on: NCI-H1975; test: Antiproliferative activity against human NCI-H1975 cells assessed as reduction in cell viability measured after 48 hrs by MTT assay; type: functional, cell-based; settings: NCI-H1975, 48 h
[14] = tested on: A549; test: Antiproliferative activity against human A549 cells assessed as reduction in cell viability measured after 48 hrs by MTT assay; type: functional, cell-based; settings: A549, 48 h

T1 sequence (P35968 whole entry): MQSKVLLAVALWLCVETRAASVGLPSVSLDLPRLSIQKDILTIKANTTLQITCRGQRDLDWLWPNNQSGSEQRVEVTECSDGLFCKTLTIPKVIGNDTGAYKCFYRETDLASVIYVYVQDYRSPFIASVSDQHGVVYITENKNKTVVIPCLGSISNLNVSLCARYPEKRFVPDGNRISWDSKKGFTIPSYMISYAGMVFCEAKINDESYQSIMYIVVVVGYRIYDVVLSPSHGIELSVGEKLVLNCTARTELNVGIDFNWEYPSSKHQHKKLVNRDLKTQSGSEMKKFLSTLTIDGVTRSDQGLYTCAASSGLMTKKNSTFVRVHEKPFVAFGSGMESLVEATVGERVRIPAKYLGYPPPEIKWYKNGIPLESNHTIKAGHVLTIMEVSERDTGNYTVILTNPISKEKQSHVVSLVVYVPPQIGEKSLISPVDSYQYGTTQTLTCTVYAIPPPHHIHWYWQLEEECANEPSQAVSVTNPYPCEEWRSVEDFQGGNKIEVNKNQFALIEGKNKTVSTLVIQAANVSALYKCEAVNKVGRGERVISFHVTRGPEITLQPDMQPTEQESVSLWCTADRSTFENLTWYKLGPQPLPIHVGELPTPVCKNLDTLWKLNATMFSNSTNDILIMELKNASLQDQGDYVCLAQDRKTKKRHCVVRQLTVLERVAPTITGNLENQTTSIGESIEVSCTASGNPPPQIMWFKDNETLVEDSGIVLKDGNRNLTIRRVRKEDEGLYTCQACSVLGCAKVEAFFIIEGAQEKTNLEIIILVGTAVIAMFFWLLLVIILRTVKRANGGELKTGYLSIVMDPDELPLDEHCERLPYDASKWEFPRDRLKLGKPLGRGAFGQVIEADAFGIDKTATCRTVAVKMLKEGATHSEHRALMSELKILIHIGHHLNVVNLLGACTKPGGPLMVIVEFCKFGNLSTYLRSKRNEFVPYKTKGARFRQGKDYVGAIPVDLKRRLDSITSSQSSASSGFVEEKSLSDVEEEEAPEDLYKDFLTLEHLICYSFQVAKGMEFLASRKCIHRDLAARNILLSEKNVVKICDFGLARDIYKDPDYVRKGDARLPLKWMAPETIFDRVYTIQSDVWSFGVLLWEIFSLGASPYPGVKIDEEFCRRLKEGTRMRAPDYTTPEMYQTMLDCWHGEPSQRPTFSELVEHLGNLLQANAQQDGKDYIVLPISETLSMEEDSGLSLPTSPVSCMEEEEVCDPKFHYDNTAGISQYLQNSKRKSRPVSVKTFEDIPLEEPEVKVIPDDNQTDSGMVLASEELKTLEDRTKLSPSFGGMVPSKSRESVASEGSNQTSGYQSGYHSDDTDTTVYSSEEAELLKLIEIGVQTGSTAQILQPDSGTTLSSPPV
Sequence of Angiopoietin-1 receptor (Q02763 whole entry): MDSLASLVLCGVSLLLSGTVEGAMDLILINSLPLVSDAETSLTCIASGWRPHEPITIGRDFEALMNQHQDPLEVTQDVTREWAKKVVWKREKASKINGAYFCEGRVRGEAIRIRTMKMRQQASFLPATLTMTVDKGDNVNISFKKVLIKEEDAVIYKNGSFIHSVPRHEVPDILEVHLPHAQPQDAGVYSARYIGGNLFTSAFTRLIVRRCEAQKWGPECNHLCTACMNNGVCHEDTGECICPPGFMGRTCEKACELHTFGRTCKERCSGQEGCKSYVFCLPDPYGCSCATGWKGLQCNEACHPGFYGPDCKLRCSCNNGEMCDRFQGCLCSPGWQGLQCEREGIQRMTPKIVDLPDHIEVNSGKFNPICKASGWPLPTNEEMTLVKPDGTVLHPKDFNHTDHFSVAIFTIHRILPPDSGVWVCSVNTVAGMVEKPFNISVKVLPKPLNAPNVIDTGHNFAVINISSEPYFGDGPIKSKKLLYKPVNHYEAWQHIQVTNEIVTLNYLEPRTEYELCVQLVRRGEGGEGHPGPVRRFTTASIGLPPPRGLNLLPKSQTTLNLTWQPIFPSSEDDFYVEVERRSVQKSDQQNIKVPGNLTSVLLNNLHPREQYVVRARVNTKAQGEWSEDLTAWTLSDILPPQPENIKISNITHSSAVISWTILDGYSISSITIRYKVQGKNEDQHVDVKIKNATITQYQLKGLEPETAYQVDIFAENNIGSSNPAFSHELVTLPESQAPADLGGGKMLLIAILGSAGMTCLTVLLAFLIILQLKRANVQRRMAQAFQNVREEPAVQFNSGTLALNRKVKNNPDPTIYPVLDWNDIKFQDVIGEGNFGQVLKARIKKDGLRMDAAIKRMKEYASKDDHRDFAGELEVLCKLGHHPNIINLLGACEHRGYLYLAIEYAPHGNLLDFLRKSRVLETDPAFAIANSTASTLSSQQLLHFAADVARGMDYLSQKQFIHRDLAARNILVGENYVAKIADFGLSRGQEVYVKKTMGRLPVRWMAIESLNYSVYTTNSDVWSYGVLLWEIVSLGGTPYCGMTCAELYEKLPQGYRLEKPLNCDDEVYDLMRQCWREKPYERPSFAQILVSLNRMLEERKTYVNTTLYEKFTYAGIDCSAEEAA

SMILES: O=C(Nc1cccc(Sc2ccnc3ccsc23)c1)Nc1cccc(C(F)(F)F)c1
- IC50 [1]: 1.2 µM
- IC50 [2]: 5 µM

SMILES: COC(=O)Nc1nc2cc(Oc3ccc(NC(=O)Nc4cc(F)ccc4C(F)(F)F)cc3)ccc2[nH]1
- IC50 [3]: 3.5 µM
- IC50 [4]: 0.0069 µM

SMILES: Cc1nc(Nc2ccc(NC(=O)Nc3ccc(F)c(Cl)c3)cc2)c2nc(-c3ccc(OCCCN4CCN(C)CC4)cc3)oc2n1
- IC50 at 24 h [5]: 12.4 µM

SMILES: CSc1cccc(NC(=O)Nc2ccc(Oc3ccc4[nH]c(=O)c(=O)[nH]c4c3)cc2C)c1
- IC50 [6]: 14 µM
- IC50 [7]: 17 µM

SMILES: Cc1nc(Nc2ccc(NC(=O)Nc3cccc(F)c3)cc2)c2nc(-c3ccccc3)sc2n1
- IC50 [8]: 5.3 µM
- IC50 [9]: 73.2 µM
- IC50 [10]: 5.3 µM

SMILES: O=C(Nc1ccc(-c2cccc(NC(=O)C3CC3)n2)cc1)Nc1ccc(Cl)c(C(F)(F)F)c1
- IC50 [11]: 14.5 µM

SMILES: O=C(Nc1ccc(-c2cccc(NC(=O)C3CC3)n2)cc1)Nc1cccc(C(F)(F)F)c1
- IC50 [11]: 16.1 µM

SMILES: O=C(Nc1ccc(OC(F)(F)F)cc1)Nc1ccc2nc(-c3ccccc3Cl)oc2c1
- IC50 [12]: 8.46 µM
- IC50 [13]: 1.4 µM
- IC50 [14]: 7.61 µM

SMILES: CNC(=O)c1cc(Oc2ccc(NC(=O)Nc3ccc(Cl)c(C(F)(F)F)c3)cc2)ccn1 [SORAFENIB]
- IC50 [8]: 73.2 µM
